Test results from ChEMBL document CHEMBL1201862, “PubChem BioAssay data set” (2004).
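Protocol summary: plate cells (96-well), add compound at 5 concentrations, incubate 48 h, interpolate endpoints linearly. GI50: concentration for 50% inhibition of growth.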 The source made the active and inactive calls. No stated cut-off is given here; in the data, active = GI50 up to about 1.1 µM and inactive = higher.

Tests used:
Assay in all cases: NCI anticancer screen, dose series, 48 h
786-0 = tested on: 786-0
A498 = tested on: A498
A549 = tested on: A549
ACHN = tested on: ACHN
BT-549 = tested on: BT-549
CAKI-1 = tested on: CAKI-1
CCRF-CEM = tested on: CCRF-CEM
COLO 205 = tested on: COLO 205
DU-145 = tested on: DU-145
EKVX = tested on: EKVX
HCC 2998 = tested on: HCC 2998
HCT-116 = tested on: HCT-116
HCT-15 = tested on: HCT-15
HL-60 = tested on: HL-60
HOP-62 = tested on: HOP-62
HOP-92 = tested on: HOP-92
Hs-578T = tested on: Hs-578T
IGROV-1 = tested on: IGROV-1
K562 = tested on: K562
KM12 = tested on: KM12
LOX IMVI = tested on: LOX IMVI
M14 = tested on: M14
MCF7 = tested on: MCF7
MDA-MB-231 = tested on: MDA-MB-231
MDA-MB-435 = tested on: MDA-MB-435
MDA-N = tested on: MDA-N
MOLT-4 = tested on: MOLT-4
Malme-3M = tested on: Malme-3M
NCI-H23 = tested on: NCI-H23
NCI-H460 = tested on: NCI-H460
NCI-H522 = tested on: NCI-H522
OVCAR-3 = tested on: OVCAR-3
OVCAR-4 = tested on: OVCAR-4
OVCAR-5 = tested on: OVCAR-5
PC-3 = tested on: PC-3
RPMI-8226 = tested on: RPMI-8226
RXF 393 = tested on: RXF 393
SF-268 = tested on: SF-268
SF-295 = tested on: SF-295
SF-539 = tested on: SF-539
SK-MEL-28 = tested on: SK-MEL-28
SK-MEL-2 = tested on: SK-MEL-2
SK-MEL-5 = tested on: SK-MEL-5
SK-OV-3 = tested on: SK-OV-3
SN12C = tested on: SN12C
SNB-19 = tested on: SNB-19
SNB-75 = tested on: SNB-75
SR = tested on: SR
SW-620 = tested on: SW-620
T47D = tested on: T47D
TK-10 = tested on: TK-10
U-251 = tested on: U-251
UACC-257 = tested on: UACC-257
UACC-62 = tested on: UACC-62
UO-31 = tested on: UO-31
HT-29 = tested on: HT-29
NCI/ADR-RES = tested on: NCI/ADR-RES
OVCAR-8 = tested on: OVCAR-8

In the case of `Brc1ccc(-c2[nH]c3ccccc3c2/N=N\c2ccccc2)cc1`, the GI50 (786-0) was 18.2 µM (inactive), the GI50 (A498) was 25.4 µM (inactive) and the GI50 (A549) was 16.6 µM (inactive). The GI50 (ACHN) was 20.6 µM (inactive), the GI50 (BT-549) was 22 µM (inactive) and the GI50 (CAKI-1) was 14.7 µM (inactive). The GI50 (CCRF-CEM) was > 10 µM (inactive), the GI50 (COLO 205) was 15 µM (inactive) and the GI50 (DU-145) was 17.5 µM (inactive). For the same compound, the GI50 (EKVX) was 16.6 µM (inactive), the GI50 (HCC 2998) was 16.8 µM (inactive) and the GI50 (HCT-116) was 19 µM (inactive). For the same compound, the GI50 (HCT-15) was 16.3 µM, the GI50 (HL-60) was 26.8 µM (inactive) and the GI50 (HOP-62) was 18.1 µM (inactive). For the same compound, the GI50 (HOP-92) was 18.2 µM (inactive), the GI50 (Hs-578T) was 20.7 µM (inactive) and the GI50 (IGROV-1) was 12.1 µM (inactive). The GI50 (K562) was 23.2 µM (inactive), the GI50 (KM12) was 16.5 µM (inactive) and the GI50 (LOX IMVI) was 30.8 µM (inactive). The GI50 (M14) was 17.5 µM (inactive), the GI50 (MCF7) was 16.1 µM (inactive) and the GI50 (MDA-MB-231) was 19.1 µM (inactive). The GI50 (MDA-MB-435) was 19.1 µM (inactive), the GI50 (MDA-N) was 16.6 µM (inactive) and the GI50 (MOLT-4) was 16.9 µM (inactive). The GI50 (Malme-3M) was 19.1 µM (inactive), the GI50 (NCI-H23) was 18.2 µM (inactive) and the GI50 (NCI-H460) was 17.1 µM (inactive). For the same compound, the GI50 (NCI-H522) was 17.6 µM (inactive), the GI50 (OVCAR-3) was 12.3 µM (inactive) and the GI50 (OVCAR-4) was 16.3 µM (inactive). For the same compound, the GI50 (OVCAR-5) was 18.7 µM (inactive), the GI50 (PC-3) was 16.1 µM (inactive) and the GI50 (RPMI-8226) was 21.7 µM (inactive). The GI50 (RXF 393) was 16.6 µM (inactive), the GI50 (SF-268) was 17.9 µM (inactive) and the GI50 (SF-295) was 18.8 µM (inactive). The GI50 (SF-539) was 17.4 µM (inactive), the GI50 (SK-MEL-28) was 21.2 µM (inactive) and the GI50 (SK-MEL-2) was 20.5 µM (inactive). For the same compound, the GI50 (SK-MEL-5) was 18.3 µM (inactive), the GI50 (SK-OV-3) was 18.9 µM (inactive) and the GI50 (SN12C) was 17.3 µM (inactive). For the same compound, the GI50 (SNB-19) was 20.9 µM (inactive), the GI50 (SNB-75) was 19.5 µM (inactive) and the GI50 (SR) was 15.3 µM (inactive). The GI50 (SW-620) was 17.5 µM (inactive), the GI50 (T47D) was 16.7 µM (inactive) and the GI50 (TK-10) was 21.1 µM (inactive). For the same compound, the GI50 (U-251) was 17.6 µM (inactive), the GI50 (UACC-257) was 19.3 µM (inactive) and the GI50 (UACC-62) was 19.8 µM (inactive). For the same compound, the GI50 (UO-31) was 16 µM (inactive).
With `CC(=O)c1cccc(Nc2nc3ccc(Cl)cc3c3[nH]c4ccccc4c23)c1` the GI50 (786-0) was 1.85 µM (inactive), the GI50 (A549) was 2.24 µM (inactive) and the GI50 (ACHN) was 4.11 µM (inactive). The GI50 (BT-549) was 64.1 µM (inactive), the GI50 (CAKI-1) was 3.03 µM (inactive) and the GI50 (CCRF-CEM) was 27.4 µM (inactive). The GI50 (COLO 205) was 2.07 µM (inactive), the GI50 (DU-145) was 4.35 µM (inactive) and the GI50 (EKVX) was 3.54 µM (inactive). The GI50 (HCT-116) was 3.85 µM (inactive), the GI50 (HCT-15) was 6.08 µM and the GI50 (HOP-62) was 4.17 µM (inactive). The GI50 (HOP-92) was 3.48 µM (inactive), the GI50 (HT-29) was 6.21 µM (inactive) and the GI50 (Hs-578T) was 9.35 µM (inactive). The GI50 (IGROV-1) was 4.16 µM (inactive), the GI50 (K562) was 1.41 µM (inactive) and the GI50 (KM12) was 4.94 µM (inactive). For the same compound, the GI50 (M14) was 11 µM (inactive), the GI50 (MCF7) was 0.434 µM (active) and the GI50 (MDA-MB-231) was 11.6 µM (inactive). The GI50 (MDA-MB-435) was 7.26 µM (inactive), the GI50 (MDA-N) was 7.74 µM (inactive) and the GI50 (Malme-3M) was 4.95 µM (inactive). For the same compound, the GI50 (NCI-H23) was 12.8 µM (inactive), the GI50 (NCI-H460) was 1.71 µM (inactive) and the GI50 (NCI-H522) was 2.8 µM (inactive). For the same compound, the GI50 (NCI/ADR-RES) was 4.38 µM (inactive), the GI50 (OVCAR-3) was 0.045 µM (active) and the GI50 (OVCAR-5) was 5.79 µM (inactive). The GI50 (OVCAR-8) was 5.12 µM (inactive), the GI50 (PC-3) was 5.86 µM (inactive) and the GI50 (RPMI-8226) was 6.95 µM (inactive). For the same compound, the GI50 (SF-268) was 3.99 µM (inactive), the GI50 (SF-295) was 2.45 µM (inactive) and the GI50 (SF-539) was 5.28 µM (inactive). For the same compound, the GI50 (SK-MEL-2) was 3.36 µM (inactive), the GI50 (SK-MEL-5) was 1.44 µM (inactive) and the GI50 (SK-OV-3) was 4.15 µM (inactive). For the same compound, the GI50 (SN12C) was 13.1 µM (inactive), the GI50 (SNB-19) was 10.5 µM (inactive) and the GI50 (SW-620) was 4.35 µM (inactive). For the same compound, the GI50 (T47D) was 6.52 µM (inactive), the GI50 (TK-10) was 4.81 µM (inactive) and the GI50 (U-251) was 2.12 µM (inactive). The GI50 (UACC-257) was 13.4 µM (inactive), the GI50 (UACC-62) was 2.19 µM (inactive) and the GI50 (UO-31) was 6.07 µM (inactive).
